For this assay, the system named is E. coli proteins. Description: Non-specific binding of MTX to proteins of E. coli cell lysate (HPLC co-fractionation). The conditions noted are these: MTX-spiked E. coli extract; FIG. 9.

Experimental findings from patent publication US8192999B2, “Method for the identification of macromolecule targets of analytes” (priority 2005, dated 2012) are described below.

In the case of `CN(Cc1cnc2nc(N)nc(N)c2n1)c1ccc(C(=O)N[C@@H](CCC(=O)O)C(=O)O)cc1` [MTX, methotrexate], the “non-specific binding of the drug to E. coli proteins” value is given as “no non-specific binding of the drug to any E. coli proteins was detected”.
